According to patent US8999990B2, “Inhibitors of the renal outer medullary potassium channel” (Merck Sharp & Dohme Corp., priority 2011, dated 2015):
Like-named read-outs stand apart in the source and are kept apart here.

Molecular target: T1, hROMK (hKir1.1) (Homo sapiens, UniProt P48048)
T1 construct: expressed in transfected cells
T1 sequence (P48048 1-391): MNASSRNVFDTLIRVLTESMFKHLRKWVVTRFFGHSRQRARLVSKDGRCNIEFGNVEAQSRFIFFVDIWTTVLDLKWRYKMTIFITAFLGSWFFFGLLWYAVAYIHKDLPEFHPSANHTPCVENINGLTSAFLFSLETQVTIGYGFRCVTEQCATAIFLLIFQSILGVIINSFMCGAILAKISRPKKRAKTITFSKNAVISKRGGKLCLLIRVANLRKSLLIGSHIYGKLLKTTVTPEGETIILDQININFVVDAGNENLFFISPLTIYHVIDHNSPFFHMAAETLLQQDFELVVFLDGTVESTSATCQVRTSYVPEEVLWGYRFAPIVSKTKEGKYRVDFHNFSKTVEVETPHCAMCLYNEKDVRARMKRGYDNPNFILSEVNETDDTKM
Experiment: Thallium Flux Assay
Assay type: cell-based
Protocol: Several assays may be used to measure functional inhibition of the ROMK channel by compounds of the instant invention. One assay that was used to test the activity of compounds in the Examples is the functional ^86Rb^+ efflux assay described below, that measures the ability of ROMK to permeate ^86Rb^+, in the absence or presence of test compound. Under control conditions, cells loaded with ^86Rb^+ and incubated in Rb^+-free medium display a time-dependent efflux of the isotope, the rate of which depends on number of functional channels. When cells are incubated in the presence of a channel inhibitor, efflux of ^86Rb^+ is prevented in a concentration-dependent manner, and IC50 values of inhibition by compounds can be accurately determined. This assay has been established with cell lines expressing either human, rat or dog ROMK channels, and can operate in 96- or 384-well format. Importantly, the human, rat, and dog ^86Rb^+ efflux assays can be carried out in the presence of up to 100% serum allowing, therefore, an accurate estimation of the effect of protein binding on the inhibitory activity of compounds of interest. Another ROMK functional assay used to test the activity of compounds in the Examples (described below) makes use of the ability of thallium to permeate through open ROMK channels and increase the fluorescence of a dye previously loaded into the cells. Under control conditions, cells loaded with dye and exposed to thallium-containing medium display a time-dependent increase in fluorescence, the rate of which depends on number of functional channels. When cells are incubated in the presence of a channel inhibitor, the increase in fluorescence is attenuated in a concentration-dependent manner, and IC50 values of inhibition by compounds can be accurately determined. This assay has been established with cell lines expressing either human, or rat ROMK channels, and operates in 384-well format.
HEK293 cells stably expressing hROMK (hKir1.1) were grown at 37° C. in a 10% CO2 humidified incubator in complete growth media: Dulbecco's Modified Eagle Medium supplemented with non-essential amino acids, Penicillin/Streptomycin/Glutamine, G418 and FBS. At >80% confluency, aspirate the media from the flask and rinse with 10 mL Calcium/Magnesium-free PBS. Add 5 mL of 1× trypsin (prepared in Ca/Mg Free PBS) to T-225 flask and return flask to 37° C./CO2 incubator for 2-3 minutes. To dislodge the cell, gently bang the side of the flask with your hand. Triturate the cells completely and then transfer the cells to 25 mL complete media. Centrifuge at 1,500 rpm for 6 min followed by resuspension in complete growth media and determine cell concentration. For typical re-seeding, 4E6 cells/T-225 flask will attain >80% confluency in 4 days. Under ideal growth conditions and appropriate tissue culture practices, this cell line is stable for 40-45 passages.
• FluxOR™ Reagent (Component A) • FluxOR™ Assay Buffer (Component B)—10× Concentrate • PowerLoad™ Concentrate (Component C)—100× Concentrate • Probenecid (Component D)—Lyophilized sample is kept at −20° C. Water soluble, 100× after solubilization in 1 mL water. […] Store at 4° C. • Thallium sulfate (Tl2SO4) Concentrate (Component G)—50 mM in water. […]

[1] = HEK293 cells stably expressing hROMK, FLIPR-Tetra, 384 wells, read-out: Thallium Flux IC50

SMILES	IC50 [1] [nM]	IC50 (text of Example 55, separated stereo-isomer, read-out: IC50 in the Thallium Flux Assay) [nM]	potency in the Thallium Flux Assay compared with Isomer A (text of Example 55, separated stereo-isomers)
COc1ccc(C(=O)CN2CCN(C[C@H](O)c3ccc4c(c3C)COC4=O)CC2=O)c(C)c1C#N [Example 50, 3-({4-[(2R)-2-Hydroxy-2-(4-methyl-1-oxo-1,3-dihydro-2-benzofuran-5-yl)ethyl]-2-oxopiperazin-1-yl}acetyl)-6-methoxy-2-methylbenzonitrile]	197	–	–
Cc1c(C(=O)CN2CCN(C[C@H](O)c3ccc4c(c3C)COC4=O)CC2=O)ccc2c1COC2=O [Example 48, 4-[(2R)-2-Hydroxy-2-(4-methyl-1-oxo-1,3-dihydro-2-benzofuran-5-yl)ethyl]-1-[2-(4-methyl-1-oxo-1,3-dihydro-2-benzofuran-5-yl)-2-oxoethyl]piperazin-2-one]	80	–	–
Cc1c(C(O)CN2CCN(C[C@H](O)c3ccc4c(c3C)COC4=O)CC2=O)ccc2c1COC2=O (stereo partly drawn) [Example 45, 4-[(2R)-2-Hydroxy-2-(4-methyl-1-oxo-1,3-dihydro-2-benzofuran-5-yl)ethyl]-1-[2-hydroxy-2-(4-methyl-1-oxo-1,3-dihydro-2-benzofuran-5-yl)ethyl]piperazin-2-one]	680	–	–
Cc1c(CCN2CCN(C[C@H](O)c3ccc4c(c3C)COC4=O)CC2=O)ccc2c1COC2=O [Example 52, 4-[(2R)-2-hydroxy-2-(4-methyl-1-oxo-1,3-dihydro-2-benzofuran-5-yl)ethyl]-1-[2-(4-methyl-1-oxo-1,3-dihydro-2-benzofuran-5-yl)ethyl]piperazin-2-one]	235	–	–
Cc1c(C(O)CN2CCN(CCc3ccc(C#N)cn3)C(=O)C2)ccc2c1COC2=O (single isomer, unassigned) [Isomer A, 6-(2-{4-[2-Hydroxy-2-(4-methyl-1-oxo-1,3-dihydro-2-benzofuran-5-yl)ethyl]-2-oxopiperazin-1-yl}ethyl)pyridine-3-carbonitrile]	–	> 1000	–
Cc1c(CCN2CCN(C[C@@H](O)c3ccc4c(c3C)COC4=O)CC2=O)ccc2c1COC2=O [Example 53, 4-[(2S)-2-hydroxy-2-(4-methyl-1-oxo-1,3-dihydro-2-benzofuran-5-yl)ethyl]-1-[2-(4-methyl-1-oxo-1,3-dihydro-2-benzofuran-5-yl)ethyl]piperazin-2-one]	660	–	–
Cc1c(C(=O)CN2CCN(C[C@H](O)c3ccc4c(c3C)COC4=O)CC2=O)ccc(F)c1C#N [Example 51, 6-Fluoro-3-({4-[(2R)-2-hydroxy-2-(4-methyl-1-oxo-1,3-dihydro-2-benzofuran-5-yl)ethyl]-2-oxopiperazin-1-yl}acetyl)-2-methylbenzonitrile]	125	–	–
Cc1c(C(O)CN2CCN(CCc3ccc(C#N)cn3)C(=O)C2)ccc2c1COC2=O (single isomer, unassigned) [Example 55, 6-(2-{4-[2-Hydroxy-2-(4-methyl-1-oxo-1,3-dihydro-2-benzofuran-5-yl)ethyl]-2-oxopiperazin-1-yl}ethyl)pyridine-3-carbonitrile]	310	–	more potent
Cc1c(CCN2CCN(CCc3ccc(C#N)cn3)C(=O)C2)ccc2c1COC2=O [Example 54, 6-(2-{4-[2-(4-Methyl-1-oxo-1,3-dihydro-2-benzofuran-5-yl)ethyl]-2-oxopiperazin-1-yl}ethyl)pyridine-3-carbonitrile]	780	–	–
Cc1c(C(O)CN2CCN(C[C@@H](O)c3ccc4c(c3C)COC4=O)CC2=O)ccc2c1COC2=O (stereo partly drawn) [Example 46, 4-[(2S)-2-Hydroxy-2-(4-methyl-1-oxo-1,3-dihydro-2-benzofuran-5-yl)ethyl]-1-[2-hydroxy-2-(4-methyl-1-oxo-1,3-dihydro-2-benzofuran-5-yl)ethyl]piperazin-2-one]	270	–	–
Cc1cc2c(cc1C(O)CN1CCN(C3CCc4cc(C#N)ccc4C3)C(=O)C1)COC2=O (stereo not shown) [Example 49, 6-{4-[2-Hydroxy-2-(6-methyl-1-oxo-1,3-dihydro-2-benzofuran-5-yl)ethyl]-2-oxopiperazin-1-yl}-5,6,7,8-tetrahydronaphthalene-2-carbonitrile]	90	–	–
Cc1c([C@@H](O)CN2CCN(C3CCc4cc(C#N)ccc4C3)C(=O)C2)ccc2c1COC2=O (stereo partly drawn) [Example 47, 6-{4-[(2R)-2-Hydroxy-2-(4-methyl-1-oxo-1,3-dihydro-2-benzofuran-5-yl)ethyl]-2-oxopiperazin-1-yl}-5,6,7,8-tetrahydronaphthalene-2-carbonitrile]	60	–	–
